Assay results reported in BindingDB's records for patent US12410160 (Gilead Sciences, 2025).

Legend:
Ketohexokinase = biological target: T1, Ketohexokinase (Human, UniProt P50053); test: KHK Biochemical Assay
T1 sequence (P50053 whole entry): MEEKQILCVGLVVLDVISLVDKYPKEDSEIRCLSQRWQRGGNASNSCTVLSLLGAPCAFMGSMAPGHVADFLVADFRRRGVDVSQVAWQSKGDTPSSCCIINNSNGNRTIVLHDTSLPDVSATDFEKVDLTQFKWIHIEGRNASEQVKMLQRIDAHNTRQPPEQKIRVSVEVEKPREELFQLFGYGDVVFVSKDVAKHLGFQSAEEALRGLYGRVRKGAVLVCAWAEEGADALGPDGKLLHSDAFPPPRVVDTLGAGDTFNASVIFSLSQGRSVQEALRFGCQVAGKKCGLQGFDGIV
Procedure: (§1) Compounds were tested for KHK enzyme inhibition in a high-throughput 384-well assay format using the ADP-Glo assay (Promega) in buffer consisting of 50 mM Hepes (pH 7.4), 140 mM KCl, 5 mM MgCl2 and 0.01% Triton-X. 0.2 nM. […] Compounds were serially diluted (1:3) in DMSO. […] The plates were incubated at room temperature for 4 hours before adding ADP-Glo reagent to quench the enzyme reaction, followed by incubation at room temperature for 1 hour. The ADP-Glo detection reagent was then added to the plates and luminescence was measured on the Envision plate reader after 1 hour.

[1] = biological target: T2, Isoform A of Ketohexokinase (Peripheral) (Human, UniProt P50053); test: KHK Biochemical Assay
T2 sequence (P50053 whole entry): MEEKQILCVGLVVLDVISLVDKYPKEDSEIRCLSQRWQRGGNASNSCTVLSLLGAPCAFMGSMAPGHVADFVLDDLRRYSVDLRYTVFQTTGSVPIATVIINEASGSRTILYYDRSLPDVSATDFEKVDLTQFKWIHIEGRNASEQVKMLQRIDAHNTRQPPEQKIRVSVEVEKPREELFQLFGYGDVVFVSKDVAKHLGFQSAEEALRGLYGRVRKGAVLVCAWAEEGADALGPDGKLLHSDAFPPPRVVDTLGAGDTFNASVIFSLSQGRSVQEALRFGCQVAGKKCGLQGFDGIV
Procedure: as §1

| IC50 (Ketohexokinase) [nM] | IC50 [1] [nM] | Compound |
| --- | --- | --- |
| > 5000 |  | C[C@H]1[C@H](CO)CN1c1nc2c(c(-c3ccc(C(N)=O)cc3)n1)CCC2 (racemic) [US12410160, Example 267] |
| 29.8 | 66.5 | C[C@H]1[C@H](F)CN1c1nc2c(c(-c3ccc4c(c3)C(=O)N(C)C4)n1)CCC2 [US12410160, Example 203] |
| 16 | 24.4 | C[C@H]1CCN1c1nc2c(c(-c3ccc4c(c3)C(=O)N(C)C4)n1)CCC2 [US12410160, Example 206] |
| 55.3 | 35.4 | C[C@H]1[C@H](O)CN1c1nc2c(c(-c3cccc(S(N)(=O)=O)c3)n1)CCC2 [US12410160, Example 209] |
| 26.9 | 33.7 | C[C@H]1CCN1c1nc2c(c(-c3cccc(S(N)(=O)=O)n3)n1)CCC2 [US12410160, Example 223] |
| 114 | 155 | C[C@H]1CCN1c1nc2c(c(-c3ccnc(S(N)(=O)=O)c3)n1)CCC2 [US12410160, Example 224] |
| 343 | 294 | C[C@H]1CCN1c1nc2c(c(-c3cccc(C4(N)CC4)c3)n1)CCC2 [US12410160, Example 225] |
| 5.4 |  | C[C@H]1[C@H](O)CN1c1nc(-c2ccc3c(c2)C(=O)N(C)C3)c2c(n1)C(F)(F)CC2 [US12410160, Example 236] |
| 319 | 267 | C[C@H]1CCN1c1nc(-c2cccc(C(N)=O)c2)c2c(n1)C1CC1C2 (some centres not stated) [US12410160, Example 272] |
|  | 340 | C[C@H]1CCN1c1nc2c(c(-c3ccnc(F)c3)n1)CCC2 [US12410160, Example 281] |
| 15.8 | 28.6 | C[C@H]1CCN1c1nc2c(c(-c3ccc4c(c3)CCNC4=O)n1)CCC2 [US12410160, Example 283] |
| 1270 | 696 | C[C@H]1[C@H](F)CN1c1nc2c(c(-c3cccc(S(N)(=O)=O)c3)n1)CCOC2 [US12410160, Example 287] |
|  | 279 | C[C@H]1CCN1c1nc2c(c(-c3ccc(C4(NS(C)(=O)=O)CC4)cc3)n1)CCC2 [US12410160, Example 306] |
|  | > 50000 | CC1CCCc2nc(N3CC[C@@H]3C)nc(-c3ccccc3)c21 (some centres not stated) [US12410160, Example 340] |
| 111 | 133 | C[C@H]1CCN1c1nc2c(c(-c3cncn3C)n1)CCC2 [US12410160, Example 341] |
| 29.8 | 35.6 | C[C@H]1[C@H](F)CN1c1nc2c(c(-c3cccc(CN)c3)n1)CCC2 [US12410160, Example 352] |
| 293 | 435 | CCOC(=O)NCc1ccc(-c2nc(N3CC[C@@H]3C)nc3c2CCC3)cc1 [US12410160, Example 358] |
| 187 | 442 | C[C@H]1[C@H](O)CN1c1nc2c(c(-c3ccc(C(C)(C)O)cc3)n1)CCC2 [US12410160, Example 371] |
| 1.8 | 4.2 | C[C@H]1[C@H](O)CN1c1nc2c(c(-c3ccc4c(N)nccc4c3)n1)CCC2 [US12410160, Example 385] |
| 382 | 296 | C[C@H]1CCN1c1nc2c(c(-c3nc4ccccc4[nH]3)n1)CCC2 [US12410160, Example 389] |
| 4630 |  | C[C@H]1CCN1c1nc(-c2ccc(C(N)=O)cc2)c2cn[nH]c2n1 [US12410160, Example 401] |
| 2.8 |  | C[C@H]1[C@H](O)CN1c1nc(-c2ccc(OC(F)F)c(S(C)(=N)=O)c2)c2c(n1)C(F)(F)CC2 (some centres not stated) [US12410160, Example 532] |
| 39.2 |  | C[C@H]1[C@H](O)CN1c1nc(-c2ccc3c(c2)CCC32COCCC(=O)N2)c2c(n1)C(F)(F)CC2 (some centres not stated) [US12410160, Example 552] |
|  | > 100 | NC1(c2ccc(-c3nc(N4CCC4C4CC(F)(F)C4)nc4c3CCC4(F)F)cc2)COC1 (configuration not stated) [US12410160, Example 573] |
| 3.7 | 13 | C[C@H]1[C@H](O)CN1c1nc(-c2ccc3c(c2)COC[C@@H]3NS(=O)(=O)CF)c2c(n1)C(F)(F)CC2 [US12410160, Example 580] |
| 0.7 | 1.3 | Cc1cc(-c2nc(N3CC[C@@H]3C(F)(F)F)nc3c2CCC3(F)F)ccc1C1(N)COC1 [US12410160, Example 586] |

| IC50 (Ketohexokinase) [nM] | IC50 [1] [nM] | Compound |
| --- | --- | --- |
| 3.7 | 9.3 | FC1(F)CCc2c(-c3ccc4c(c3)OC[C@@H]4NC3COC3)nc(N3CC[C@@H]3C(F)(F)F)nc21 [US12410160, Example 588] |
| 5.6 |  | C[C@H]1[C@H](O)CN1c1nc(-c2ccc3c(c2)OC(C(F)F)CNC3=O)c2c(n1)C(F)(F)CC2 (some centres not stated) [US12410160, Example 597] |
| 239 |  | C[C@H]1CCN1c1nc2c(c(-c3ccc4c(c3)CN(S(=O)(=O)CC#N)CC4)n1)CCC2 [US12410160, Example 604] |
| 15.3 |  | C[C@H]1CCN1c1nc2c(c(-c3cccc(C4CCS(=O)(=O)N4)c3)n1)CCC2 (some centres not stated) [US12410160, Example 606] |
| 32.6 |  | C[C@H]1[C@H](O)CN1c1nc(-c2ccc3c(c2)CNCC3)c2c(n1)C(F)(F)CC2 [US12410160, Example 612] |
| 4.3 |  | C[C@H]1[C@H](O)CN1c1nc(-c2ccc3c(c2)C(NS(C)(=O)=O)CO3)c2c(n1)C(F)(F)CC2 (some centres not stated) [US12410160, Example 613] |
| 14.3 |  | C[C@H]1[C@H](O)CN1c1nc(-c2cccc(-n3cnnc3)c2)c2c(n1)C(F)(F)CC2 [US12410160, Example 619] |
| 1.3 |  | C[C@H]1[C@H](O)CN1c1nc(-c2ccc3c(c2)C(NS(C)(=O)=O)CC3)c2c(n1)C(F)(F)CC2 (some centres not stated) [US12410160, Example 621] |
| 7.3 |  | CCS(=O)(=O)N[C@H]1COc2cc(-c3nc(N4C[C@@H](O)[C@@H]4C)nc4c3CCC4(F)F)ccc21 [US12410160, Example 624] |
| 8.8 | 10.3 | C[C@H]1[C@H](O)CN1c1nc(-c2cccc(S(=N)(=O)CC#N)c2)c2c(n1)C(F)(F)CC2 (some centres not stated) [US12410160, Example 628] |
| 1.2 | 15.9 | C[C@H]1[C@H](O)CN1c1nc(-c2ccc3c(c2)COCC32CCC(=O)N2)c2c(n1)C(F)(F)CC2 (some centres not stated) [US12410160, Example 639] |
| 220 |  | C[C@H]1CCN1c1nc2c(c(-c3cn(C4CC4)nn3)n1)CCC2 [US12410160, Example 644] |
| 158 |  | C[C@H]1CCN1c1nc2c(c(-c3cn(CCO)nn3)n1)CCC2 [US12410160, Example 645] |
| 15.5 |  | C[C@H]1[C@H](O)CN1c1nc(-c2cn(C3CNC3)nn2)c2c(n1)C(F)(F)CC2 [US12410160, Example 647] |
| 6.6 |  | C[C@H]1CCN1c1nc(-c2ccc([C@H](N)C(F)F)cc2)c2c(n1)C(F)(F)CC2 [US12410160, Example 650] |
| 8.2 |  | C[C@H]1CCN1c1nc(-c2cn(C3CNC3)nn2)c2c(n1)C(F)(F)CC2 [US12410160, Example 653] |
| 16.4 |  | C[C@H]1CCN1c1nc(-c2cccc(-n3ccnn3)c2)c2c(n1)C(F)(F)CC2 [US12410160, Example 654] |
| 25.1 |  | C[C@H]1CCN1c1nc(-c2ccc(-n3ccnn3)cc2)c2c(n1)C(F)(F)CC2 [US12410160, Example 655] |
| 5.7 |  | N#C[C@H]1CCN1c1nc(-c2ccc([C@@H](N)C(F)F)cc2)c2c(n1)C(F)(F)CC2 [US12410160, Example 660] |
| 0.9 |  | C[C@H]1[C@H](O)CN1c1nc(-c2ccc3c(c2)S(=O)(=O)CC3NS(C)(=O)=O)c2c(n1)C(F)(F)CC2 (some centres not stated) [US12410160, Example 665] |
| 9.2 |  | C[C@H]1[C@H](O)CN1c1nc(-c2cccc(N=S3(=O)CCOCC3)c2)c2c(n1)C(F)(F)CC2 [US12410160, Example 673] |
| 51.9 |  | C[C@H]1CCN1c1nc(-c2ccc(C#N)c(S(C)(=N)=O)c2)c2c(n1)C(F)(F)CC2 (some centres not stated) [US12410160, Example 798] |
| 18 |  | C[C@H]1[C@H](O)CN1c1nc(-c2ccc3c(c2)S(C)(=O)=NC3)c2c(n1)C(F)(F)CC2 (some centres not stated) [US12410160, Example 805] |
| 1.8 | 71.3 | COC(=O)N[C@H]1COc2cc(-c3nc(N4C[C@@H](O)[C@@H]4C)nc4c3CCC4(F)F)ccc21 [US12410160, Example 814] |
| 9.2 |  | COC(=O)N[C@@H]1COc2cc(-c3nc(N4C[C@@H](O)[C@@H]4C)nc4c3CCC4(F)F)ccc21 [US12410160, Example 815] |
| 0.9 | 0.5 | COc1ccc(-c2nc(N3CC[C@@H]3C(F)(F)F)nc3c2CCC3(F)F)cc1[S@@](C)(=N)=O [US12410160, Example 825] |

| Compound | IC50 (Ketohexokinase) [nM] | IC50 [1] [nM] |
| --- | --- | --- |
| C[C@H]1CCN1c1nc2c(c(-c3ccc(CNS(C)(=O)=O)cc3)n1)CCC2 [US12410160, Example 361] | 30.3 | 68.4 |
| C[C@H]1[C@H](O)CN1c1nc(-c2ccc3c(c2)CCS3(=N)=O)c2c(n1)C(F)(F)CC2 (some centres not stated) [US12410160, Example 664] | 17.3 |  |
